From patent US5866577A, “Aromatic amidine derivatives and salts thereof” (priority 1991, dated 1999) come the findings set out here.

Data set [1] has as its system human blood plasma (clotting time). Kind of data set: Measurement of Anticoagulant Activity (plasma clotting time, CT2). Format: biochemical. The following applies: concentration which doubles the control clotting time, 37° C. As to the method:
Measurement of Anticoagulant Activity A blood plasma sample was prepared from human blood using a centrifuge. […] Thereafter, clotting time was measured using CLOTEC (Sanko Junyaku Co., Ltd.). A clotting time measured without adding a compound to be tested was used as a control, and a concentration of the test compound which doubles the control clotting time was calculated (hereinafter referred to as "CT2") as an index of the anticoagulant activity.

The next data set has as its target T1, thrombin (Bos taurus, UniProt P00735).
T1 construct: thrombin (for topical application use, Sankyo Co., Ltd.); purchased Sankyo Co., Ltd
Kind of data set: Measurement of Thrombin Inhibition Activity. Format: biochemical. How it is done: Measurement of Thrombin Inhibition Activity
A 100 μl portion of Tris-HCl buffered saline (pH 7.45) (TBS) containing 6 mg/ml of fibrinogen (Type 1, Daiichi Pure Chemicals Co., Ltd.) was mixed with 100 μl of physiological saline solution. At 37° C., 100 μl of Tris-HCl buffered saline (pH 7.45) (TBS) containing varying amounts of thrombin (for topical application use, Sankyo Co., Ltd.) was added to the mixture prepared above to measure clotting time using CLOTEC (Sanko Junyaku Co., Ltd.) and to prepare a calibration curve.

The target in another data set is human FXa (Homo sapiens, UniProt P00742). Kind of data set: Measurement of Activated Blood Coagulation Factor X (FXa) Inhibition Activity. Format: biochemical. The following applies: substrate S-2222, 37° C., 15 minutes. How it is done: Measurement of Activated Blood Coagulation Factor X (FXa) Inhibition Activity
A 180 μl portion of physiological saline solution containing a compound to be tested was mixed with 200 μl of Tris-HCl buffer (pH 8.4) and 100 μl of 1 mM S-2222 (KabiVitrum AB) aqueous solution, and the mixture was incubated at 37° C. 20 μl of Tris-HCl buffered saline (pH 7.45) containing 0.6 unit/ml of human FXa was added to the mixture. After 15 minutes of incubation at the same temperature, the reaction was stopped by adding 100 μl of 60% acetic acid, and absorbance of the reaction mixture was measured. A reaction mixture with no addition of a test compound was used as a blank, and another reaction mixture in which 60% acetic acid was added prior to the addition of FXa was used as a control.

Data set [2] concerns activated partial thromboplastin time (APTT). Kind of data set: Measurement of Anticoagulant Activity in Oral Administration (APTT). It is filed as in vivo, male STD:Wistar rat. The following applies: rat, 100 mg/kg. As to the method: Measurement of Anticoagulant Activity in Oral Administration
An aqueous solution of each compound to be tested was administered orally to each male STD:Wistar rat individual under an anesthetic, at a dose of 10 ml/kg body weight. Blood samples were collected periodically and blood plasma preparations were obtained from the samples to measure activated partial thromboplastin time (APTT). In the same manner, APTT was measured by administering pure water and used as a control. A test/control APTT ratio was calculated and used as an index of the anticoagulant activity.

Data set [3] in a line: Measurement of Solubility in Water.
Description: A fixed amount of water was added to a varying amounts of each sample, and the mixture was agitated on a shaker at 25° C. for 10 minutes.

Where a name gives a salt, the structure may show the parent alone. Some results are limits rather than exact numbers.

Chain of human FXa (P00742 235-488 limits assumed): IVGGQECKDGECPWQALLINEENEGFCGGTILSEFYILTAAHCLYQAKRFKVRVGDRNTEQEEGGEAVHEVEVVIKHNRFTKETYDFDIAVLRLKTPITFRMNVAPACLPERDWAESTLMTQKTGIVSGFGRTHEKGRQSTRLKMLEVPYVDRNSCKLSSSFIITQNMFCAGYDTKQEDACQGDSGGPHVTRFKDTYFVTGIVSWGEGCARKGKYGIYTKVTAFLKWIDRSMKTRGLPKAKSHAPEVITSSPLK
Chain of human FXa (P00742 41-179 limits assumed): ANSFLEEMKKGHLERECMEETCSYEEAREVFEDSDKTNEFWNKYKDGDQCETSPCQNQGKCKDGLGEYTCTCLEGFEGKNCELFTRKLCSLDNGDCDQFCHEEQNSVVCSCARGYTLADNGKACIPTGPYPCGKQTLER

Regarding `CC(=N)N1CCC(Oc2ccc(C(Cc3cc4cc(C(=N)N)ccc4s3)C(=O)O)cc2)CC1.Cl.Cl` (stereo not shown) [Inventive Example 97, 2-[4-[(1-acetimidoyl-4-piperidinyl)oxy]phenyl]-3-(5-amidinobenzo[b]thien-2-yl)propionic acid Dihydrochloride], the “Anti-Coagulation CT2” value in data set [1] came out at 0.23 µM. Moreover, the IC50 (commonly the midpoint of a concentration-inhibition curve) was determined as 170 µM against thrombin and 0.045 µM against human FXa.

`CCn1c(CC(C(=O)O)c2ccc(O[C@H]3CCN(C(C)=N)C3)cc2)cc2ccc(C(=N)N)cc21` (stereo partly drawn) [Inventive Example 105, 2-[4-[((3S)-1-(acetimidoyl-3-pyrrolidinyl)oxy]phenyl]-3-(6-amidino-1-ethyl-2-indolyl)propionic Acid Dihydrochloride]: the “Anti-Coagulation CT2” value in data set [1] was determined as 0.35 µM. Besides, the “Test/Control APTT Ratio” value in data set [2] (0.5 hr) is 2.69; in data set [2] (1 hr), 3.60; in data set [2] (2 hr), 2.41; in data set [2] (4 hr) it was 1.66. Further, the IC50 stood at 6.8 µM on thrombin and 0.054 µM on human FXa.

In the case of `Cl.Cl.N=C(N)c1ccc2cc(CC(C(=O)O)c3ccc(O[C@H]4CCNC4)cc3)[nH]c2c1` (single isomer, unassigned; (+)) [Inventive Example 48, Dihydrochloride], the figures for the IC50 on thrombin and at human FXa were 50 µM and 0.36 µM, respectively.

For `CCn1c(CC(C(=O)O)c2ccc(OC3CCN(C(C)=N)CC3)cc2)cc2ccc(C(=N)N)cc21.Cl.Cl` (stereo not shown) [Inventive Example 98, 2-[4-[(1-acetimidoyl-4-piperidinyl)oxy]phenyl]-3-(6-amidino-1-ethyl-2-indolyl)propionic Acid Dihydrochloride], the “Anti-Coagulation CT2” value in data set [1] was determined as 0.3 µM. The “Test/Control APTT Ratio” value was found to be 4.07 in data set [2] (0.5 hr), 3.96 in data set [2] (1 hr), 3.37 in data set [2] (2 hr) and 2.19 in data set [2] (4 hr). For the same compound, the figures for the IC50 at thrombin and at human FXa were 2.5 µM and 0.011 µM, respectively.

Regarding `Cl.Cl.N=C(N)c1ccc2sc(CC(C(=O)O)c3ccc(O[C@H]4CCN(C(=N)C5CC5)C4)cc3)cc2c1` (stereo partly drawn) [Inventive Example 95, 3-(5-amidinobenzo[b]thien-2-yl)-2-[4-[((3S)-1-cyclopropanecarboximidoyl-3-pyrrolidinyl)oxy]phenyl]propionic Acid Dihydrochloride], in data set [1], the “Anti-Coagulation CT2” value was 0.8 µM. In addition, the IC50 on thrombin was determined as 26 µM; at human FXa, 0.16 µM.

Consider `Cl.Cl.N=C(N)c1ccc2[nH]c(CC(C(=O)O)c3ccc(O[C@H]4CCNC4)cc3)cc2c1` (stereo partly drawn) [Inventive Example 68, 3-(5-amidino-2-indolyl)-2-[4-[((3S)-3-pyrrolidinyl)oxy]-phenyl]propionic acid Dihydrochloride], for which the “Anti-Coagulation CT2” value in data set [1] worked out at 1.45 µM. For the same compound, the IC50 against thrombin stood at 190 µM; on human FXa it was 0.17 µM.

As to `CCCCCC(=N)N1CC[C@H](Oc2ccc(C(Cc3cc4cc(C(=N)N)ccc4s3)C(=O)O)cc2)C1.Cl.Cl` (stereo partly drawn) [Inventive Example 94, 3-(5-amidinobenzo[b]thien-2-yl)-2-[4-[((3S)-1-n-hexanimidoyl-3-pyrrolidinyl)oxy]phenyl]propionic Acid Dihydrochloride], the “Anti-Coagulation CT2” value in data set [1] is 1.1 µM. Also, the results for the IC50 at thrombin and on human FXa were 370 µM and 0.1 µM, respectively.

With `CC(=N)N1CC[C@H](Oc2ccc(C(Cc3nc4cc(C(=N)N)ccc4s3)C(=O)O)cc2)C1.Cl.Cl` (stereo partly drawn) [Inventive Example 89, 2-[4-[((3S)-1-acetimidoyl-3-pyrrolidinyl)oxy]phenyl]-3-(5-amidino-2-benzothiazolyl)propionic Acid Dihydrochloride], the “Anti-Coagulation CT2” value in data set [1] worked out at 5 µM. The “Test/Control APTT Ratio” value in data set [2] (0.5 hr) is listed as 1.24; in data set [2] (1 hr), 1.22; in data set [2] (2 hr), 1.17; in data set [2] (4 hr), 1.14. Moreover, the IC50 was greater than 600 µM on thrombin and 0.6 µM against human FXa.

Consider `Cl.Cl.N=C(N)c1ccc2cc(CC(C(=O)O)c3ccc(O[C@H]4CCNC4)cc3)[nH]c2c1` (single isomer, unassigned; (+)) [Inventive Example 48], for which, in data set [1], the “Anti-Coagulation CT2” value stood at 3 µM. The “Test/Control APTT Ratio” value in data set [2] (0.5 hr) came to 1.46; in data set [2] (1 hr), 1.42; in data set [2] (2 hr), 1.41; in data set [2] (4 hr), 1.18.

With `CC(=N)N1CCC[C@H]1COc1ccc(C(Cc2cc3cc(C(=N)N)ccc3s2)C(=O)O)cc1.Cl.Cl` (single isomer, unassigned; (+)) [Inventive Example 41], the “Anti-Coagulation CT2” value in data set [1] came to 0.32 µM.

With `CC(=N)N1CCC(Oc2ccc(C(Cc3ccc4ccc(C(=N)N)cc4c3)C(=O)O)cc2)CC1.Cl.Cl` (stereo not shown) [Inventive Example 108, 2-[4-[(1-acetimidoyl-4-piperidinyl)oxy]phenyl]-3-(7-amidino-2-naphthyl)propionic Acid Dihydrochloride], in data set [3], the solubility – broadly, how much of the substance goes into solution per volume – at 10 min was no less than 350 mg/mL. Besides, the “Anti-Coagulation CT2” value in data set [1] came out at 0.3 µM. Moreover, the “Test/Control APTT Ratio” value was 2.12 in data set [2] (0.5 hr), 2.18 in data set [2] (1 hr), 1.69 in data set [2] (2 hr) and 1.39 in data set [2] (4 hr). Besides, the IC50 against thrombin stood at 250 µM; on human FXa it was 0.018 µM.

For `CC(=N)N1CC[C@H](Oc2ccc(C(CC(=O)O)Cc3cc4cc(C(=N)N)ccc4s3)cc2)C1.Cl.Cl` (stereo partly drawn) [Inventive Example 104, 3-[4-[((3S)-1-acetimidoyl-3-pyrrolidinyl)oxy]phenyl]4-(5-amidinobenzo[b]thien-2-yl)butyric Acid Dihydrochloride], the solubility at 10 min in data set [3] was no less than 450 mg/mL. In data set [1], the “Anti-Coagulation CT2” value was 0.64 µM. The half-inhibitory concentration (IC50) on thrombin is 230 µM; at human FXa it was 0.086 µM.

Turning to `Cl.Cl.N=C(N)c1ccc2oc(C(Cc3ccc(O[C@H]4CCNC4)cc3)C(=O)O)cc2c1` (stereo partly drawn) [Inventive Example 21, 2-(5-amidino-2-benzofuranyl)-3-[4-[((3S)-3-pyrrolidinyl)-oxy]phenyl]propionic Acid Dihydrochloride], the solubility at 10 min in data set [3] was no less than 600 mg/mL.

With `CC(=N)N1CCC[C@H]1COc1ccc(C(Cc2cc3cc(C(=N)N)ccc3s2)C(=O)O)cc1.Cl.Cl` (single isomer, unassigned; (+)) [Inventive Example 41, Dihydrochloride], the IC50 at thrombin was determined as 9 µM; against human FXa, 0.032 µM.

Regarding `CC(=N)N1CCC(Oc2ccc(C(Cc3ccc4ccc(C(=N)N)cc4c3)C(=O)O)cc2)CC1.Cl.Cl` (single isomer, unassigned; (+)) [Inventive Example 43, (+)-2-[4-[(1-acetimidoyl-4-piperidinyl)oxy]phenyl]-3-(7-amidino-2-naphthyl)propionic Acid Dihydrochloride], in data set [1], the “Anti-Coagulation CT2” value worked out at 0.18 µM. Also, the 50% inhibitory concentration (IC50) is greater than 400 µM against thrombin and 0.013 µM against human FXa.

In the case of `Cl.Cl.N=C(N)c1ccc2sc(CC(CC(=O)O)c3ccc(O[C@H]4CCNC4)cc3)cc2c1` (stereo partly drawn) [Inventive Example 61, 4-(5-amidinobenzo[b]thien-2-yl)-3-[4-[((3S)-3-pyrrolidinyl)oxy]phenyl]butyric Acid Dihydrochloride], the “Test/Control APTT Ratio” value amounted to 1.40 in data set [2] (0.5 hr), 1.28 in data set [2] (1 hr), 1.21 in data set [2] (2 hr) and 1.09 in data set [2] (4 hr).

Turning to `CC(=N)N1CC[C@H](Oc2ccc(CC(C(=O)O)c3cc4cc(C(=N)N)ccc4s3)cc2)C1` (stereo partly drawn) [Inventive Example 106, 3-[4-[((3S)-1-acetimidoyl-3-pyrrolidinyl)oxy]phenyl]-2-(5-amidinobenzo[b]thien-2-ylpropionic Acid Dihydrochloride], in data set [1], the “Anti-Coagulation CT2” value came to 2.3 µM. Further, the IC50 on thrombin stood at 100 µM; against human FXa, 0.56 µM.

Consider `CCn1c(CC(C(=O)O)c2ccc(O[C@H]3CCNC3)cc2)cc2ccc(C(=N)N)cc21.Cl.Cl` (stereo partly drawn) [Inventive Example 73, 3-(6-amidino-1-ethyl-2-indolyl)-2-[4-[((3S)-3-pyrrolidinyl)oxy]phenyl]propionic Acid Dihydrochloride], for which the solubility at 10 min in data set [3] was no less than 450 mg/mL.
